Experimental data as given in patent US11180509B2, “Thiazolidone spiro pyrimidine trione compound, preparation method therefor and uses thereof” (SHANGHAI INSTITUTE OF MATERIA MEDICA, CHINESE ACADEMY OF …, priority 2017, dated 2021).
Converted amounts (≈) assume the structure as drawn. Read-outs that look alike come from different tables or passages of the source.

Columns and labels:
[1] = In vivo pharmacokinetics test in mice (oral); parameters: species or system CD-1 mice; details: PO 10.0 mg/kg
Experimental: Healthy female CD-1 mice were randomly divided into five groups and each group comprised three mice. The tested compound was administered orally.
0.030 mL of blood was taken from the orbit of each animal each time and anticoagulated with EDTAK2. The collection time was as follows. PO group: 15 m, 30 mi, 1 h, 2 h, 4 h, 6 h, 8 h, and 24 h after administration of the test compound. The collected blood samples were placed on ice and centrifuged within 30 minutes to separate the plasma (centrifugation conditions: 5000 rpm, 10 minutes, room temperature). The samples were stored at −80° C. before analysis.

[2] = test system: Staphylococcus aureus MRSA15-3; experiment: In vitro antibacterial activity against the in vivo test strain (MIC); format: cell-based; details: MRSA153
Experimental: (§1) The MIC value of each test sample for the tested strain was determined by micro broth dilution method recommended by Performance Standards for Antimicrobial Susceptibility Testing (Twenty-Third Informational Supplement; M02-A11, M07-A9 and M11-A8, 2013) of American Clinical and Laboratory Standards Institute (CLSI).
(§2) After diluting each test sample to different concentrations in MH broth, 100 μl of each sample solution at different concentrations was pipetted into a sterilized 96-well polystyrene plate. In the first to twelfth wells, the drug solution was added, and the final drug concentrations in each well were 64, 32, 16, 8, 4, 2, 1, 0.5, 0.25, 0.125, 0.06, and 0.03 mg/L. The well without drug and without bacteria was set as blank control well. The well with bacteria and without drug was set as a bacterial growth control well.
The test bacterial solution was adjusted with physiological saline to a bacterial suspension equivalent to 0.5 Maisson turbidity standard, and diluted 1:100 with MH broth. The drug solution was added so that the final concentration of the bacterial solution was about 10^4 CFU/ml; then 100 μl of bacterial solution was pipetted into the above wells (the total volume in each well was 200 μl). The plate was sealed and placed in a 35-37° C. incubator for 18-20 h, and then the results were determined. […]

[3] = test system: methicillin-sensitive Staphylococcus epidermidis or MSSE; experiment: In vitro antibacterial activity, MIC by micro broth dilution; format: cell-based; details: read-out: MIC MSSE
From the text: (§3) The following strains isolated in clinic were used in antibacterial activity screening in vitro: five strains of methicillin-resistant Staphylococcus aureus or MRSA, five strains of methicillin-sensitive Staphylococcus aureus or MSSA, five strains of methicillin-resistant Staphylococcus epidermidis or MRSE, five strains of methicillin-sensitive Staphylococcus epidermidis or MSSE, three strains of penicillin-resistant Streptococcus pneumoniae or PRSP, and three strains of Streptococcus pyogenes.
(§4) The above strains were clinically isolated pathogenic bacteria collected in Sichuan and Beijing in December 2015. They were identified by the collection unit via a VITEK-60 automatic microbiological identification instrument, and then re-identified by conventional methods in the laboratory. Before the experiment, each strain was purified by a single colony on an agar plate, and the cells freshly cultured at 37° C. overnight were appropriately diluted for the experiment. Quality control strain was Staphylococcus aureus ATCC25923 purchased from the Clinical Testing Center of the Ministry of Health of the People's Republic of China.
(§5) Medium: MH (Mueller-Hinton, hydrolyzed casein) broth (OXOID);
(§6) Culture condition: Incubate at 35-37° C. for 16-18 h.
as §1, §2
(§7) The test bacterial solution was adjusted with physiological saline to a bacterial suspension equivalent to 0.5 Maisson turbidity standard, and diluted 1:100 with MH broth. The drug solution was added so that the final concentration of the bacterial solution was about 10^4 CFU/ml; then 100 μl of bacterial solution was pipetted into the above wells (the total volume in each well was 200 μl). The plate was sealed and placed in a 35-37° C. incubator for 18-20 h, and then the results were determined. […] When Streptococcus pneumoniae was tested, sterile defibrillated sheep blood was added into the Colombian broth culture medium at a final concentration of 5% and cultivation was conducted in a 5% CO2 and 35-37° C. incubator for 18-20 hours.

[4] = test system: methicillin-resistant Staphylococcus epidermidis or MRSE; experiment: as above; format: cell-based; details: read-out: MIC MRSE
From the text: as §3, §4, §5, §6, §1, §2, §7

[5] = test system: methicillin-sensitive Staphylococcus aureus or MSSA; experiment: as above; format: cell-based; details: read-out: MIC MSSA
From the text: as §3, §4, §5, §6, §1, §2, §7

[6] = test system: methicillin-resistant Staphylococcus aureus or MRSA; experiment: as above; format: cell-based; details: read-out: MIC MRSA
From the text: as §3, §4, §5, §6, §1, §2, §7

[7] = test system: penicillin-resistant Streptococcus pneumoniae or PRSP; experiment: as above; format: cell-based; details: read-out: MIC PRSP
From the text: as §3, §4, §5, §6, §1, §2, §7

[8] = test system: Streptococcus pyogenes; experiment: as above; format: cell-based; details: read-out: MIC Spy
From the text: as §3, §4, §5, §6, §1, §2, §7

[9] = test system: S. aureus MRSA15-3 infected mice; experiment: In vivo protection test, systemic infection model (ED50); parameters: species or system Kunming mice; details: Staphylococcus aureus
[10] = test system: MRSA, MSSA, MRSE, MSSE, PRSP, and Spy; experiment: In vitro antibacterial activity over the whole strain panel, compared with AZD0914; format: cell-based; details: against MRSA
From the text: as §3, §4, §1, §2, §7

[11] = In vivo pharmacokinetic test in rats (PO and IV); details: SD rats
Experimental: Nine SD rats were randomly divided into three groups and each group comprised three […].
0.100 mL of blood was taken from the orbit of each animal each time and anticoagulated with EDTAK2. The collection time was as follows. (1) PO group (10.0 mg/kg): 15 min, 30 min, 1 h, 2 h, 4 h, 6 h, 8 h, 24 h after administration of the test compound; PO group (100 mg/kg): 15 min, 30 min 1 h, 2 h, 4 h, 6 h, 8 h, 10 h, 24 h, 36 h, 48 h; (2) IV group: 5 min, 15 min, 30 min, 1 h, 2 h, 4 h, 6 h, 8 h, 24 h after administration of the test compound. The collected blood samples were placed on ice and centrifuged within 30 minutes to separate the plasma (centrifugation conditions: 5000 rpm, 10 minutes, 4° C.). The samples were stored at −80° C. before analysis.

[12] = female, CD-1, mouse, plasma, read-out: Cmax
[13] = female, CD-1, mouse, plasma, read-out: MRT
[14] = female, CD-1, mouse, plasma, read-out: Tmax
[15] = po, read-out: ED50 95% confidence limit

Row | SMILES | AUC(0-t) ([1]; female, CD-1, mouse, plasma) | half-life ([1]; female, CD-1, mouse, plasma) | Cmax [1, 12] | MRT [1, 13] | Tmax [1, 14] | MIC [2] | MIC [3] | MIC [4] | MIC [5] | MIC [6] | MIC [7] | MIC [8] | ED50 [9] | ED50 [9, 15] | further results
1 | C[C@@H]1CN2c3c(cc4c(N5C(=O)OC[C@@H]5C)noc4c3F)CC3(C(=O)NC(=O)NC3=O)[C@H]2[C@H](C)O1 [AZD0914, reference compound] | 748 ± 215 ng·h/mL | 3.41 ± 0.944 h | 183 ± 134 ng/mL | 7.06 ± 2.92 h | 0.583 ± 0.382 h | 0.125 µg/mL (≈ 0.256 µM) | 0.06 to 0.25 µg/mL (≈ 0.123 to 0.513 µM) | 0.06 to 0.25 µg/mL (≈ 0.123 to 0.513 µM) | 0.125 to 0.25 µg/mL (≈ 0.256 to 0.513 µM) | 0.06 to 1 µg/mL (≈ 0.123 to 2.05 µM) | 0.25 to 1 µg/mL (≈ 0.513 to 2.05 µM) | 0.25 to 0.5 µg/mL (≈ 0.513 to 1.03 µM) | 11.5 mg/kg | 7.28 to 25.8 mg/kg | –
2 | C[C@@H]1CN2c3c(cc4c(N5CCSC5=O)noc4c3F)CC3(C(=O)NC(=O)NC3=O)[C@H]2[C@H](C)O1 [Compound 1, (2R,4S,4aS)-11-fluoro-2,4-dimethyl-8-(2-oxothiazolin-3-yl)-1,2,4,4a-tetrahydro-2′H,6H-spiro[isoxazole[4,5-g][1,4]oxazine[4,3-a]quinoline-5,5′-pyrimidine]-2′,4′,6′(1′H,3′H)-trione] | – | – | – | – | – | – | < 0.03 µg/mL | < 0.03 µg/mL | < 0.03 µg/mL | 0.03 to 0.06 µg/mL (≈ 0.0613 to 0.123 µM) | < 0.03 µg/mL | < 0.03 µg/mL | – | – | AUC0→t relative to AZD0914 ([1]; multiple of the AZD0914 value): ~10 times); Cmax relative to AZD0914 ([1]; multiple of the AZD0914 value): ~8 times); AUC0→t ([1]; plasma): 7334 ± 943 ng·h/mL; Cmax ([1]; plasma): 1548 ± 52 ng/mL; MRT ([1]; plasma): 3.70 ± 0.95 h; Tmax ([1]; plasma): 1.33 ± 0.577 h; t1/2 ([1]; plasma): 2.90 ± 1.72 h; in vitro antibacterial activity relative to AZD0914 [10]: about 8 times; melting point: 225 to 226 °C
3 | C[C@@H]1CN2c3c(cc4c(N5C[C@H](C)SC5=O)noc4c3F)CC3(C(=O)NC(=O)NC3=O)[C@H]2[C@H](C)O1 [Compound 2, (2R,4S,4aS)-11-fluoro-2,4-dimethyl-8-((S)-5-methyl-2-oxothiazolin-3-yl)-1,2,4,4a-tetrahydro-2′H,6H-spiro[isoxazole[4,5-g][1,4]oxazine[4,3-a]quinoline-5,5′-pyrimidine]-2′,4′,6′(1′H,3′H)-trione] | 24200 ± 5640 ng·h/mL | 6.2 ± 1.4 h | 2580 ± 713 ng/mL | 8.94 ± 2.15 h | 2.67 ± 1.15 h | < 0.03 µg/mL | < 0.03 µg/mL | < 0.03 µg/mL | 0.03 to 0.06 µg/mL (≈ 0.0596 to 0.119 µM) | 0.03 to 0.25 µg/mL (≈ 0.0596 to 0.497 µM) | < 0.03 µg/mL | < 0.03 µg/mL | 2.54 mg/kg | 0.11 to 3.71 mg/kg | AUC0-t (IV) ([11]; IV 10 mg/kg): 89577 ± 9072 ng·h/mL; Cl (IV) ([11]; IV 10 mg/kg): 1.82 ± 0.214 mL/min/kg; T1/2 (IV) ([11]; IV 10 mg/kg): 4.93 ± 0.844 h; Vdss (IV) ([11]; IV 10 mg/kg): 0.675 ± 0.0578 L/kg; % F ([11]; PO 10 mg/kg): 52.0 ± 8.41%; AUC0-t (PO) ([11]; PO 10 mg/kg): 46598 ± 7538 ng·h/mL; Cmax (PO) ([11]; PO 10 mg/kg): 4430 ± 1250 ng/mL; T1/2 (PO) ([11]; PO 10 mg/kg): 4.38 ± 1.21 h; Cmax (PO) ([11]; PO 100 mg/kg): 32069 ± 7934 ng/mL; MRT ([11]; rat, plasma, IV 10 mg/kg, read-out: MRT (IV)): 6.22 ± 0.601 h; Tmax ([11]; rat, plasma, PO 10 mg/kg): 5.33 ± 1.15 h; MRT ([11]; rat, plasma, PO 10 mg/kg, read-out: MRT (PO)): 7.54 ± 0.773 h; AUC(0-t) ([11]; rat, plasma, PO 100 mg/kg): 509000 ± 65900 ng·h/mL; Tmax ([11]; rat, plasma, PO 100 mg/kg): 5.33 ± 1.15 h; bioavailability ([11]; rat, plasma, PO 100 mg/kg): 55.1 ± 7.1%; MRT ([11]; rat, plasma, PO 100 mg/kg, read-out: MRT (PO)): 11.1 ± 2.11 h; half-life ([11]; rat, plasma, PO 100 mg/kg, read-out: T1/2 (PO) (converted)): 4.19 ± 0.23 h
